Assay results published in patent US7144731B2, “SCF antibody compositions and methods of using the same” (Amgen Inc., priority 1989, dated 2006).

Assays:
mouse bone marrow cells = test: Pre-B cell colony formation in agar cultures; format: cell-based
From the text: The ability of recombinant rat SCF^1-164 (rrSCF^1-164), to act synergistically with IL-7 to enhance lymphoid cell proliferation was studied in agar cultures of mouse bone marrow. In this assay, the colonies formed with rrSCF^1-164 alone contained monocytes, neutrophils, and blast-cells, while the colonies stimulated by IL-7 alone or in combination with rrSCF^1-164 contained primarily pre-B cells. Pre-B cells, characterized as B220^+, sIg^−, cμ^+, were identified by FACS analysis of pooled cells using fluorescence-labeled antibodies to the B220 antigen [Coffman, Immunol. Rev., 69, 5 (1982)] and to surface Ig (FITC-goat anti-K, Southern Biotechnology Assoc., Birmingham, Ala.); and by analysis of cytospin slides for cytoplasmic μ expression using fluorescence-labeled antibodies (TRITC-goat anti-μ, Southern Biotechnology Assoc.,). Recombinant human IL-7 (rhIL-7) was obtained from Biosource International (Westlake Village, Calif.). When rrSCF^1-164 was added in combination with the pre-B cell growth factor IL-7, a synergistic increase in colony formation was observed (Table 16), indicating a stimulatory role of rrSCF^1-164 on early B cell progenitors.

UT-7 cells = test: UT-7 ^3H-thymidine uptake assay; format: cell-based, human
Description: UT-7 cells are a human megakaryocyte, huGM-CSF responsive cell line obtained from John Adamson, New York Blood Center, New York, N.Y. UT-7 cells were cultured in Iscove's Modified Dulbecco's Medium, 10% FBS, 1× glutamine, 5 \g/ml huGM-CSF. Cells are passaged twice a week at 1×10^5 cells/ml.
Cells were washed twice in phosphate buffered saline (PBS) and resuspended in RPMI medium with 4% FBS and glutamine penicillin streptomycin (GPS) (Irvine Scientific Cat No. 9316 used at 1% volume per volume) at 4×10^4 cells/ml before use. Human SCF along with specific samples were added to 4000 cells/well in 96 well plates and were cultured for 72 hrs. 0.5 uCi/well of ^3H-Thymidine was then added to each plate, plates were harvested and counted 4 hours later.

[1] = tested on: 5-FU treated mouse bone marrow cells; test: HPP-CFC assay; format: cell-based; details: COS-1 supernatants, concentrations tested
From the text: There are a variety of biological activities which can be attributed to the natural mammalian rat SCF as well as the recombinant rat SCF protein. One such activity is its effect on early hematopoietic cells. This activity can be measured in a High Proliferative Potential Colony Forming Cell (HPP-CFC) assay [Zsebo, et al., supra (1988)]. To investigate the effects of factors on early hematopoietic cells, the HPP-CFC assay system utilizes mouse bone marrow derived from animals 2 days after 5-fluorouracil (5-FU) treatment. […] The rat SCF is plated in the presence of CSF-1 or IL-6 in semi-solid agar cultures. The agar cultures contain McCoys complete medium (GIBCO), 20% fetal bovine serum, 0.3% agar, and 2×10^5 bone marrow cells/ml. The McCoys complete medium contains the following components: 1× McCoys medium supplemented with 0.1 mM pyruvate, 0.24× essential amino acids, 0.24× non-essential amino acids, 0.027% sodium bicarbonate, 0.24× vitamins, 0.72 mM glutamine, 25 μg/ml L-serine, and 12 μg/ml L-asparagine. The bone marrow cells are obtained from Balb/c mice injected i.v. with 150 mg/kg 5-FU. The femurs are harvested 2 days post 5-FU treatment of the mice and bone marrow is flushed out. The red blood cells are lysed with red blood cell lysing reagent (Becton Dickenson) prior to plating. Test substances are plated with the above mixture in 30 mm dishes. Fourteen days later the colonies (>1 mm in diameter) which contain thousands of cells are scored. This assay was used throughout the purification of natural mammalian cell-derived rat SCF.

KG-1 = KG-1 soft agar cloning assay; format: cell-based, human; details: COS-1 supernatant
Description: Another activity of recombinant human SCF is the ability to cause proliferation in soft agar of the human acute myelogenous leukemia (AML) cell line, KG-1 (ATCC CCL 246). COS-1 supernatants from transfected cells were tested in a KG-1 agar cloning assay [Koeffler et al., Science, 200, 1153–1154 (1978)] essentially as described except cells were plated at 3000/ml.

human bone marrow = test: Human bone marrow colony assay; format: cell-based; details: for Colony #/100,000 cells ± SD: COS-1 CM, 20 U/ml EPO, 14 days, colonies ≥0.2 mm
Description: The cDNA of human SCF corresponding to amino acids 1–162 obtained by PCR reactions outlined in Example 3D, was expressed in COS-1 cells as described for the rat SCF in Example 4. COS-1 supernatants were assayed on human bone marrow as well as in the murine HPP-CFC and MC/9 assays. […] The culture conditions of the assay were as follows: human bone marrow from healthy volunteers was centrifuged over Ficoll-Hypaque gradients (Pharmacia) and cultured in 2.1% methyl cellulose, 30% fetal calf serum, 6×10^−5 M 2-mercaptoethanol, 2 mM glutamine, ISCOVE'S medium (GIBCO), 20 U/ml EPO, and 1×10^5 cells/ml for 14 days in a humidified atmosphere containing 7% O2, 10% CO2, and 83% N2. Only those colonies of 0.2 mm in size or larger are indicated.
Recombinant human SCF was tested in agar colony assays on human bone marrow in combination with other growth factors as described above.

[2] = tested on: murine mast cell line, MC/9; test: MC/9 ^3H-thymidine uptake assay; format: cell-based; details: COS-1 supernatants, concentrations tested
Description: Another useful biological activity of both naturally-derived and recombinant rat SCF is the ability to cause the proliferation of the […] murine mast cell line, MC/9 (ATCC CRL 8306). MC/9 cells are cultured with a source of […] according to the ATCC CRL 8306 protocol. The medium used in the bioassay is RPMI 1640, 4% fetal bovine serum, 5×10^−5M 2-mercaptoethanol, and 1× glutamine-pen-strep. The MC/9 cells proliferate in response to SCF without the requirement for other growth factors. This proliferation is measured by first culturing the cells for 24 h without growth factors, plating 5000 cells in each well of 96 well plates with test sample for 48 h, pulsing for 4 h with 0.5 uCi ^3H-thymidine (specific activity 20 Ci/mmol), harvesting the solution onto glass fiber filters, and then measuring specifically-bound radioactivity. This assay was used in the purification of mammalian cell derived rat SCF after the ACA 54 gel filtration step, section C2 of this Example. Typically, SCF caused a 4–10 fold increase in CPM over background.

[3] = biological target: T1, SCF receptor (OCIM1 plasma membrane) (Homo sapiens, UniProt P10721); test: SCF radioreceptor assay; format: binding
T1 construct: endogenous in cells; host or cells: OCIM1 human erythroleukemic cells, plasma membrane preparation
Description: OCIM1 cells, [Papayannopoulou et al., Blood 72:1029–1038 (1988)] are a human erythroleukemic cell line expressing many human SCF receptors per cell. These cells are grown in Iscove's Modified Dulbecco's Medium, 10% FBS, and 1× glutamine and passaged 3 times a week to 1×10^5 cells/ml.
Preparation of the OCIM1 plasma membrane is as follows with all steps performed on ice.
First, 40 T175 flasks of cells were grown-up in OCIM1 culture medium, for a total of 1.9×10^9 […]. The conditioned medium and 1 mM Phenyl Methyl Sulfonyl Fluoride (PMSF) protease inhibitor, was spun down in 8×250 ml tubes at 1000 rpm for 10 minutes at 4° C. Cells were washed with PBS and repelleted in 4×50 ml centrifuge tubes at 1000 rpm for 10 minutes at 4° C. Cells were resuspended in 20 ml ice cold PBS with glucose sodium pyruvate (Gibco Cat #310-4287). The 20 ml cell solution was put into a pre-pressurized, pre-chilled (4° C.) “cell bomb” designed to lyse the cells. Cells were pressurized at 400–650 PSI for 10 minutes to establish equilibrium. When the pressure is released cell lysis occurs.
At this point the cells were checked for the percentage of cell lysis. 90% lysis was common. The cell suspension was resuspended in 80 mls sucrose buffer (0.25M sucrose, 10 mM Tris, 1 mM EDTA in double distilled (dd) H2O, filtered through a 0.45 u filter, pH 7.0) and divided between two 40 ml screwcap tubes. Tubes were spun at 5900 RPM for 10 minutes in a Beckman J2-21 centrifuge, JA-20 rotor at 4° C. The supernatants were saved and spun one more time as above to further remove any unwanted material. Supernatants were saved and distributed equally into 2 nalgene 40 ml centrifuge tubes. These supernatants were centrifuged at 16,000 RPM 4° C. for 30 min. in J2-21 centrifuge, JA-20 rotor. These supernatants were discarded being careful to save pellets. Each pellet was resuspended in sucrose buffer so there were 20 mls per tube in 4×36 ml plastic ultracentrifuge tubes. Using a 20 ml syringe and a large trochar, the solution was carefully underlayered in each tube with ice cold 36% sucrose solution (36.1 g sucrose/100 mls ddH2O), bringing the level of the liquid to within 2 mm of the top of the tube. Without disturbing the interface, each tube was carefully placed into each of […] titanium ultracentrifuge tubes. Tubes were centrifuged at 27,000 RPM, 4° C. for 75 minutes in an ultracentrifuge. These tubes were carefully removed from the rotor and from titanium buckets, placed in a rack with the 36% sucrose interface visible. The membraneous material at the interface was collected with a pasteur pipet and transfered into 2 clean nalgene 40 ml centrifuge tubes. Volume was brought up to 40 mls with ice cold sucrose buffer. Tubes were balanced and centrifuged as before at 5900 RPM in J2-21 centrifuge. […]

normal human bone marrow = test: Human CFU-GM assay; format: cell-based; details: average of triplicate cultures; SCF = COS-1 supernatant 4 days after transfection

Question: What does the source list for “rhIL-7: Recombinant human IL-7 from Biosource International”?
Answer: Colony Number per 5 × 10^4 mouse bone marrow cells plated (mouse bone marrow cells; 25 ng): 4 ± 2; Colony Number per 5 × 10^4 mouse bone marrow cells plated (mouse bone marrow cells; 50 ng): 13 ± 6; Colony Number per 5 × 10^4 mouse bone marrow cells plated (mouse bone marrow cells; 100 ng): 18 ± 6; Colony Number per 5 × 10^4 mouse bone marrow cells plated (mouse bone marrow cells; 200 ng, mean of triplicate dishes ± SD): 21 ± 6

Question: Which “activity in the UT-7 assay” value (UT-7 cells; final material after cation exchange chromatography) does the source give for “SCF^1-248: full length recombinant human stem cell factor formed in E. coli” here?
Answer: Its value is “no activity”.

Question: And the “activity in the UT-7 assay” value (UT-7 cells; material following anion exchange chromatography)?
Answer: The value was “active”.

Question: “V19.8 human SCF^1-162: recombinant human SCF amino acids 1–162, COS-1 supernatant” was tested. Which “activity in murine HPP-CFC assay” value [1] did it give?
Answer: Its value is “not active”.

Question: What about the “Colony #/3000 Cells ± SD” value (KG-1; 1.5 μl assayed) of the same molecule?
Answer: The value was 6 ± 6.

Question: What about the “Colony #/3000 Cells ± SD” value (KG-1; 3 μl assayed) of the same molecule?
Answer: The value was 6 ± 4.

Question: And the “Colony #/3000 Cells ± SD” value (KG-1; 6 μl assayed)?
Answer: Its value is 9 ± 5.

Question: What about the “Colony #/3000 Cells ± SD” value (KG-1; 12 μl assayed) of the same molecule?
Answer: Its value is 8 ± 0.

Question: And the “Colony #/3000 Cells ± SD” value (KG-1; 25 μl assayed, triplicate)?
Answer: Its value is 14 ± 0.

Question: What about the “Colony #/100,000 cells ± SD” value (human bone marrow; 50 μl assayed) of the same molecule?
Answer: The value was 22 ± 3.

Question: And the “Colony #/100,000 cells ± SD” value (human bone marrow; 100 μl assayed)?
Answer: The value was 33 ± 7.

Question: And the “activity on human bone marrow” value (human bone marrow; COS-1 supernatants)?
Answer: The value was “active on human bone marrow”.

Question: And the “activity in murine MC/9 assay” value [2]?
Answer: Its value is “not active”.

Question: “SCF^11-164: E. coli human SCF analog, amino acids 11 to 164” was tested. Which “specific activity in the radioreceptor assay” value [3] did it give?
Answer: Its value is “negligible specific activity”.

Question: And the “specific activity in the UT-7 assay” value (UT-7 cells)?
Answer: The value was “negligible specific activity”.

Question: How did the “Colony #/10^5 cells (14 Days)” value (human bone marrow; agar colony assay, factors alone or combined) turn out when “hSCF: Recombinant human SCF tested in agar colony assays; form not stated at Table 13” was run?
Answer: The value was 0.

B1: CSF-1: human macrophage colony-stimulating factor (protein, UniProt P09603 33-554, looked up)
Macrophage colony-stimulating …: EEVSEYCSHMIGSGHLQSLQRLIDSQMETSCQITFEFVDQEQLKDPVCYLKKAFLLVQDIMEDTMRFRDNTPNAIAIVQLQELSLRLKSCFTKDYEEHDKACVRTFYETPLQLLEKVKNVFNETKNLLDKDWNIFSKNCNNSFAECSSQDVVTKPDCNCLYPKAIPSSDPASVSPHQPLAPSMAPVAGLTWEDSEGTEGSSLLPGEQPLHTVDPGSAKQRPPRSTCQSFEPPETPVVKDSTIGGSPQPRPSVGAFNPGMEDILDSAMGTNWVPEEASGEASEIPVPQGTELSPSRPGGGSMQTEPARPSNFLSASSPLPASAKGQQPADVTGTALPRVGPVRPTGQDWNHTPQKTDHPSALLRDPPEPGSPRISSLRPQGLSNPSTLSAQPQLSRSHSSGSVLPLGELEGRRSTRDRRSPAEPEGGPASEGAARPLPRFNSVPLTDTGHERQSEGSFSPQLQESVFHLLVPSVILVLLAVGGLLFYRWRRRSHQEPQRADSPLEQPEGSPLTQDDRQVELPV
Question: B1 was tested. Which “Colony #/100,000 cells (±SEM)” value (normal human bone marrow) did it give?
Answer: The value was 0.
